Reference: patent US20110053996A1, “Use of phenyltriazoles for controlling insects and spider mites by watering, droplet application or dip application or by treating seed” (Bayer CropScience AG, priority 2009, published 2011)

Assays:
[1] = test system: Liriomyza trifolii; assay: Liriomyza trifolii test on bush beans; drench application; assay type: in vivo; settings: bush bean plants, 0.5 mg of ai/plant, 14 days after infestation
Method: (§1) To produce a suitable preparation of active compound, 1 part by weight of active compound is mixed with the stated amounts of solvent and emulsifier, and the concentrate is diluted with water to the desired concentration.
Bush bean plants (Phaseolus vulgaris) are watered with the respective product solution. The stated concentration refers to the amount of active compound per plant. After about 1 week, the treated plants are infested with the leaf-mining fly (Liriomyza trifolii).
After 2 weeks, the effect in % is determined. 100% means that all of the leaf-mining flies have been killed; 0% means that none of the leaf-mining flies have been killed.

[2] = test system: Tetranychus urticae; assay: Tetranychus urticae test on bush beans; drench application; assay type: in vivo; settings: bush bean plants, 0.25 mg of ai/plant, 14 days after infestation
Method: as §1
Bush bean plants (Phaseolus vulgaris) are watered with the respective product solution. The stated concentration refers to the amount of active compound per plant. After about 1 week, the treated plants are infested with the greenhouse red spider mite (Tetranychus urticae).
After 2 weeks, the effect in % is determined. 100% means that all of the spider mites have been killed; 0% means that none of the spider mites have been killed.

SMILES: Cc1cc(F)c(-n2nc(C(F)(F)F)nc2N)cc1[S+]([O-])CC(F)(F)F (centres unmarked) [(I-4)]
- % Activity (according to Abbott) [1]: 100%
- % Activity (according to Abbott) [2]: 100%
